# Assay results published in PMC7349874, “High Content Screening Using New U2OS Reporter Cell Models Identifies Harmol Hydrochloride as a Selective and Competitive Antagonist of the Androgen Receptor” (Cells, 2020).
# Where a name gives a salt, the structure may show the parent alone.
# Key:
# GR = GR expression (RT-qPCR and Western blot) in VCaP cells; conditions: 3 µM, 24 h, 1 nM R1881
# Procedure: LNCaP and VCaP cells were seeded in 6-well plates (10^6 and 2 × 10^6 cells per well, respectively) and, 48 h later, complete medium was replaced by charcoal-stripped medium with 5% FBS. Cells were then treated for 24 h with the tested compounds, and RNA extraction was performed using the Quick RNA Miniprep kit (Zymo-Research, Irvine, CA, USA), according to the manufacturer’s protocol. Reverse transcription was performed with 0.5 µg total RNA using the SuperScript III reverse transcriptase kit (ThermoFisher, Waltham, MA, USA), according to the manufacturer’s protocol, in a final volume of 20 µL. The levels of genes transcripts were measured by real time PCR using a LightCycler 480 system (Roche Life Science, Penzberg, Germany) in the presence of SYBRGreen (SYBR® Premix Ex Taq^tm) and the following primers: FKBP5, sense 5′-[sequence]-3′; antisense 5′-[sequence]-3′; PSA, sense 5′-[sequence]-3′; antisense 5′-[sequence]-3′; TMPRSS2, sense 5′-[sequence]-3′, antisense 5′-[sequence]-3′; GR, sense 5′-[sequence]-3′, antisense 5′-[sequence]-3′; HPRT, sense 5′-[sequence]-3′; antisense 5′-[sequence]-3′; GAPDH, sense 5′-[sequence]-3′; antisense 5′-[sequence]-3′. Expression levels were evaluated with the ΔΔCt method and were normalized to GAPDH. Results are expressed as mRNA expression, relative to control (untreated cells), and are the mean ± SEM of 3 independent experiments. […]
# [1] = test system: U2OS-ARE-Luc control cells; experiment: Luciferase activity in U2OS-ARE-Luc control cells; conditions: validation, up to 3 µM, 16 h
# DU145 cells = experiment: Spheroid growth (CellTiter-Glo), DU145; type: cell-based, human; conditions: 7 days, AR negative cells
# AR [2] = molecular target: T1, AR (Homo sapiens, UniProt P10275); experiment: cell-based; type: binding
# T1 sequence (P10275 1-920): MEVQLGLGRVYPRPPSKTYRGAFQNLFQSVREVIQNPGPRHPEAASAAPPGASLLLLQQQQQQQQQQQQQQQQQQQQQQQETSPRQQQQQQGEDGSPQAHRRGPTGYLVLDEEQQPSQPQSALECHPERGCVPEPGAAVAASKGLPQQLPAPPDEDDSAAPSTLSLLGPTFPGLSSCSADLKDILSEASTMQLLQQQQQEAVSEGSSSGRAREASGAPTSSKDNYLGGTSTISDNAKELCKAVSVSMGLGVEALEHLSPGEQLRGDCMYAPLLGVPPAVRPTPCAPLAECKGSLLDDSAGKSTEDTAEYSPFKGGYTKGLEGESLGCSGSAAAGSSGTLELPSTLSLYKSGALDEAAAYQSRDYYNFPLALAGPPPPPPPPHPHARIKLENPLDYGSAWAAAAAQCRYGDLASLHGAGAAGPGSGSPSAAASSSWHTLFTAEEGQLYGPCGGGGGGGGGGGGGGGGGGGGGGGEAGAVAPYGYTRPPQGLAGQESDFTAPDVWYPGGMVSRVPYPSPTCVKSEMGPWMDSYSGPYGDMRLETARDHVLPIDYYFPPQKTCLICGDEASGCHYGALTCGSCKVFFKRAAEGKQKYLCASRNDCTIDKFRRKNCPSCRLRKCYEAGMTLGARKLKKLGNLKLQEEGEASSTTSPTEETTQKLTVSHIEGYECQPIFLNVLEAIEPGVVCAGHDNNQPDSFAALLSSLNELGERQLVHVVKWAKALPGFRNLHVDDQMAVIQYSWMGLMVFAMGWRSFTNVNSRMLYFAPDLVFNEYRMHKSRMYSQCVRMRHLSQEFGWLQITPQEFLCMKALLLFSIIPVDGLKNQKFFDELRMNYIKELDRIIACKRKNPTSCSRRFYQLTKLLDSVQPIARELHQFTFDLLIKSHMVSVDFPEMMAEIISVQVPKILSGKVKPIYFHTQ
# Procedure: U2OS hAR-AREluc cells were seeded at a density of 80,000 cells per well in clear-bottomed 96-well plates (Greiner Bio-One, Courtaboeuf, France). […] Cells were then lysed with 50 μL of LSC-cocktail (Emulsifier-Safe, Packard BioScience, Wellesley, MA, USA), and [^3H]-bound radioactivity was counted in scintillation liquid with a microbeta trilux (Perkin Elmer, Wellesley, MA, USA). Non-specific binding was determined in the presence of 300 nM unlabeled R1881. Specific binding was calculated by subtracting non-specific binding from the total binding, and expressed as disintegrations per minute (dpm). […] Relative binding affinities (RBA) were calculated as IC50 ratios between each competitor and R1881. The RBA value for R1881 was arbitrarily set at 100.
# Non-specific binding was determined in the presence of 300 nM unlabeled R1881. Specific binding was calculated by subtracting non-specific binding from total binding. Results were plotted as % of maximal [^3H]-labeled R1881 binding as a function of drug concentrations (n = 3 ± SEM).
# LNCaP cells = experiment: Spheroid growth (CellTiter-Glo), LNCaP; conditions: 7 days, 1 nM R1881
# [3] = molecular target: T2, mineralocorticoid receptor (MR) (Homo sapiens, UniProt P08235); experiment: Transactivation assay in HG5LN MR cells; type: cell-based; conditions: 16 h, 1 nM aldosterone, highest concentrations used (>1 µM)
# T2 construct: expressed in transfected cells
# T2 sequence (P08235 726-964 limits assumed): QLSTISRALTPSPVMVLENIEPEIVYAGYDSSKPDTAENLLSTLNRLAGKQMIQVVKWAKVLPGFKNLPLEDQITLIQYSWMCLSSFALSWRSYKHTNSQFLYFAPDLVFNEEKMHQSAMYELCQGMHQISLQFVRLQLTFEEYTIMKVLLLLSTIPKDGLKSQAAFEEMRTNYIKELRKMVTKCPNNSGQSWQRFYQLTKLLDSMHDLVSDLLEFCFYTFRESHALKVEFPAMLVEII
# Text: HG5LN MR and HG5LN PXR luciferase reporter cell lines were obtained by stable expression of individual ligand binding domains fused to GAL4 DNA binding domain in HG5LN (HeLa GAL4REx5-luciferase) cells, as previously described. HELN PR cells were obtained by stably expressing PR with the ERα DNA binding domain in HELN (HeLa ERE-luciferase) cells and HMLN GR cells were obtained by stable co-transfection of HeLa cells with a plasmid encoding for a glucocorticoid responsive gene (MMTV-Luc-SV-Neo) and a glucocorticoid receptor expressing plasmid, as previously described.
# Agonistic activities were evaluated in HMLN GR, HELN PR, HG5LN MR, and HG5LN PXR cells, using dexamethasone 100 nM, R5020 100 nM, aldosterone 100 nM, and SR12813 3 μM as a positive control, respectively. […] RU486 was used as a control antagonist for GR and PR, and spironolactone for MR.
# HMLN glucocorticoid receptor (GR), HG5LN mineralocorticoid receptor (MR), HELN progesterone receptor (PR) and HG5LN PXR cells were used to evaluate the antagonistic effect of the tested compounds on (A) the glucocorticoid receptor (GR), (B) the mineralocorticoid receptor (MR), (C) the progesterone receptor (PR) and (D) the agonistic activity towards the pregnane X receptor (PXR). […]
# AR [4] = conditions: cited from earlier work
# PC3 cells = experiment: Spheroid growth (CellTiter-Glo), PC3; type: cell-based, human; conditions: 7 days, AR negative cells
structure (smiles),measurement,setting,value
"Cc1nccc2c1[nH]c1cc(O)ccc12 [harmol hydrochloride, Harmol hydrochloride monohydrate]",Expression of GR at the mRNA and protein levels,GR,neither harmol nor enzalutamide treatment could significantly alter the expression of GR
same,Effect on luciferase activity in control cells,[1],no effect
same,Growth of DU145 spheroids,DU145 cells,no effect
same,Concentration competing with ligand binding relative to enzalutamide,AR [2],3.5 fold
same,IC50,"AR [2]; 0.3 nM [3H]-R1881, 3 h, 37 °C, read-out: IC50 of competition with [3H]-R1881 for AR binding",540 nM
same,Growth of LNCaP spheroids,LNCaP cells,A similar effect was observed
same,Antagonistic activity towards MR,[3],small antagonistic activity
same,Concentration competing for ligand binding relative to the concentration necessary to fully inhibit AR activity,AR [4],30- to 100 fold
same,Inhibition of AR activation in a chemical genomic screen,AR [4],weak inhibitor
same,Nature of AR inhibition reported earlier,AR [4],non-competitive inhibitor of AR
same,Growth of PC3 spheroids,PC3 cells,no effect
